# Assay results taken from patent US20180353461A1, “USE OF CANNABINOIDS AS CERAMIDE-GENERATING ANTICANCER AGENTS IN TUMORS OF THE HEMATOPOIETIC AND LYMPHOID TISSUES” (priority 2014, published 2018).
# How the values were obtained:
# [1] = tested on: hematopoietic stem cells (CD34+); assay: Cell viability of CD34+ hematopoietic stem cells from healthy donors (MTT); type: cell-based, human; conditions: any tested dose
# T-cells (CD3+) = assay: Cell viability of T-cells (MTT); type: cell-based, human
# B-cells (CD19+) = assay: Cell viability of B-cells (MTT); type: cell-based, human
# [2] = tested on: KG1 (acute myelogenous leukemia) and HL60 (Human promyelocytic leukemia cells) cell lines; assay: Cell viability of AML cell lines (MTT / WST-1 assay); type: cell-based; conditions: for cell viability of KG1 and HL60 cell lines as compared to untreated control cells: WIN-55 0.5-50 uM, JWH-133 0.05-1 mM; for concentration from which the cell viability decrease occurs with statistically significant data: FIG. 12 / FIG. 13
# Procedure: Human acute myeloid leukemia cell line KG-1 and human acute promyelocytic leukemia cell line HL60 (American Type Culture Collection) were cultured RPMI 1640 medium (Gibco™, Invitrogen, Barcelona, Spain) with 2 mM L-glutamine, 100 IU/m1 penicillin and 100 ug/ml streptomycin (all from Sigma-Aldrich, St. Louis, Mo., USA), and supplemented with 10% (HL60 cell line) or 20% (KG1 cell line and human primary cells) fetal bovine serum [(FBS), [Thermo Fisher Scientific (Waltham, Mass., USA)] in a humidified atmosphere of CO2/air (5%/95%).
# The cannabinoid agonists WIN-55,212-2 mesylate ((R)-(+)-[2,3-dihydro-5-methyl-3-(4-morpholinylmethyl)-pyrrolo-[1,2,3]-1,4-benzoxazin-6-yl]-1-naphthalenylmethanone mesylate) and JWH-133 ((6aR,10aR)-3-(1,1-Dimethylbutyl)-6a,7,10,10a-tetrahydro-6,6,9-trimethyl-6H-dibenzo [b,d] pyran) were purchased from Tocris Bioscience (Bristol, UK) and they was added in the indicated concentrations to culture medium for different incubation periods. Control cells were cultured with the relevant amounts of DMSO.
# Cells lines, CD34+ cells and blast were cultured in 96-well plates (5×10e5 cells per well) with the addition of the indicated concentrations of WIN 55,212-2 or JWH-133 in DMSO or with the solvent alone in triplicate. Also we add myoricin together the cannabinoid WIN-55 to see if this effect reversed. Cell viability was determined by the WST-1 [2-(4-lodophenyl)-3-(4-nitrophenyl)-5-(2,4-disulfophenyl)-2H-tetrazolium] assay as per the manufacturer's instructions (Dojindo Molecular Technologies). Optical densities were measured at 450 nm using a plate reader Multiskan™ Go Microplate (Thermo Fisher Scientific, Waltham, Mass., USA).
# Firstly, we assessed the effect of cannabinoids WIN-55 and JWH-133 on cell viability. To this end, the cells were treated with increasing concentrations of cannabinoids, WIN-55 (0.5-50 uM) and JWH-133 (0.05-1 mM), for 18 and 48, and viability was analyzed by MTT assays.
# Granulocytes = assay: Viability of normal residual granulocytes in bone marrow samples of MM patients (flow cytometry); type: cell-based, human; conditions: all doses tested
# Source text: Human multiple myeloma cell lines MM1.S, MM1.R, RPMI-8226 (RPMI) and U266 were purchased from American Type Culture Collection [(ATCC), LGC Standards, Manassas, USA]. Human primary cells were obtained from MM patients' bone marrow (BM) and healthy donors' peripheral blood (PB). PB samples were collected from buffy coats and leukapheresis products, previously mobilized with granulocyte colony stimulating factor (G-CSF). Hematopoietic progenitor cells (CD34+) were isolated from leukaphesesis samples, and B (CD19+) and T (CD3+) lymphocytes from buffy coats by positive immunomagnetic separation in the AutoMACS pro separator (Miltenyi Biotec, Bergisch Gladbach, Germany). For this purpose CD34-, CD19- and CD3-MACS microbead Human Kit (Miltenyi Biotec, Bergisch Gladbach, Germany). The purity of all isolated cells was higher than 95% in all cases. […]
# Further, cell viability of bone marrow cell populations from patients was assessed by flow cytometry using 7-amino-actinomycin D [(7-AAD), BD Biosciences] together with a combination of monoclonal antibodies against myeloma-associated antigens (anti-CD56-APC, anti-CD45-Pacific Blue, and anti-CD38-APC-H7 [BD Biosciences]) and antibodies to discriminate the granulomonocytic (anti-CD64-FITC) and lymphocytic (anti-CD45-Pacific Blue) populations. […] Fluorescent intensity was quantified and analyzed using Infinicyt™ Software (Cytognos, Salamanca, Spain). […]
smiles,measurement,setting,value
"CCCC(C)(C)c1ccc2c(c1)OC(C)(C)[C@@H]1CC=C(C)C[C@@H]21 [JWH-133, (6aR,10aR)-3-(1,1-Dimethylbutyl)-6a,7,10,10a-tetrahydro-6,6,9-trimethyl-6H-dibenzo [b,d] pyran]",cell viability of hematopoietic stem cells (CD34+),[1],remained unaffected
same,viability of T-cells,T-cells (CD3+),remained unaffected
same,viability of B-cells,B-cells (CD19+),decreased viability
same,cell viability of KG1 and HL60 cell lines as compared to untreated control cells,[2]; 18 h,significantly reduced
same,concentration from which the cell viability decrease occurs with statistically significant data,[2],≥ 500 µM
same,viability of granulocytes,Granulocytes,unaffected
"CS(=O)(=O)O.Cc1c(C(=O)c2cccc3ccccc23)c2cccc3c2n1[C@H](CN1CCOCC1)CO3 [WIN-55, (R)-(+)-[2,3-dihydro-5-methyl-3-(4-morpholinylmethyl)-pyrrolo-[1,2,3]-1,4-benzoxazin-6-yl]-1-naphthalenylmethanone mesylate]",cell viability of hematopoietic stem cells (CD34+),[1],remained unaffected
same,viability of T-cells,T-cells (CD3+),remained unaffected
same,viability of B-cells,B-cells (CD19+),decreased viability
same,most sensitive AML cell line,[2]; 18 h,HL60 was the most sensitive
same,cell viability of KG1 and HL60 cell lines as compared to untreated control cells,[2]; 18 h,significantly reduced
same,concentration from which the cell viability decrease occurs with statistically significant data,[2],≥ 500 µM
same,viability of granulocytes,Granulocytes,unaffected
